Experimental data taken from patent publication US12370159B2, “Compositions and methods of use of beta-hydroxy-beta-methylbutyrate (HMB) and probiotics” (priority 2016, dated 2025).

Experiments:
[1] = HMB kinetics before and after two weeks of BC30 probiotic supplementation (Example 2)
[2] = after HMB is fed; cited from earlier work
[3] = healthy young or old adults; cited from earlier work

| Compound | Probiotic-induced increase in peak plasma HMB levels, CaHMB compared with HMB-FA [1] | Loss of HMB to urine [2] | Side effects [3] |
| --- | --- | --- | --- |
| Calcium β-Hydroxy-β-Methylbutyrate [CaHMB] | larger |  |  |
| CC(C)(O)CC(=O)O [HMB, β-hydroxy-β-methylbutyric acid] |  | 20-50% | no side effects |
